Data set [1] has as its system Mouse mammary tumor FM3A cells. The data set can be described thus: Evaluation of cytotoxicity. The data set is classed as cell-based. As to conditions: 37° C., 48 hours, values in FIG. 8 only, stated in words. The protocol:
(2) Evaluation Method of Cytotoxicity (See Hye-Sook Kim; Yasuharu Shibata; Yusuke Wataya; Kaoru Tsuchida; Araki Masuyama; Masatomo Nojima. J. Med. Chem. 1999, 42, 2604-2609)
The concentration of […] (Mouse mammary tumor FM3A cells) is adjusted to 5×10^4 cells/ml, and 5 μl of DMSO solutions of antimalarial drug candidate compounds prepared at various concentrations is added. The cells area cultured at 37° C. for 48 hours and then, the number of surviving cells is counted by the use of microcell counter CC-130 (To a Medical Electric Co.). The measurement results are compared with the results obtained from the control experiment so as to calculate EC50 value.

The test system of data set [2] is Plasmodium falciparum (ATCC 30932, FCR-3 strain). The data set can be described thus: Evaluation of antimalarial activity (infected human erythrocytes, Giemsa staining). The class given is cell-based. The conditions noted are these: 37° C., 72 hours, values in FIG. 8 only, stated in words. The procedure: Human erythrocyte infected with malaria parasite (Plasmodium falciparum (ATCC 30932, FCR-3 strain)) is prepared on a 24-well culture plate and 5 μl each of DMSO solutions of antimalarial drug candidate compounds prepared at various concentrations is added. Thereafter, the erythrocyte is cultured at 37° C. for 72 hours. A part of the cultured erythrocyte is subjected to Giemsa staining. Then, the number of cells infected with malaria is counted under microscope. EC50 values are calculated based on the measurement values.

Regarding `CN(CCNC(=O)C=Cc1c[nH]cn1)CCNc1ccnc2cc(Cl)ccc12` [uro-2Q, N-(2-{[2-(7-Chloro-quinolin-4-ylamino)ethyl]methylamino}ethyl)-3-(1H-imidazol-4-yl)acrylamide], in data set [1], the “cytotoxicity (EC50)” value is on record as “lower toxicity as compared with existing drugs”. In addition, the “antimalarial activity (EC50)” value in data set [2] was “higher antimalarial activity”.

These data come from patent publication US7973027B2, “Compound with antimalarial activity and antimalarial drug containing the same as active ingredient” (Nagoya City University, priority 2006, dated 2011).
